In ChEMBL document CHEMBL3509396, “FDA drug approval package for Aspirin (clinical pharmacology review, Ref:ID 3227827)”:

Assays:
[1] = (§1) Mean Tmax of acetylsalicylic acid concentration after administration of Genuine Bayer Aspirin Tablet at fasting condition in human; type: ADME, organism-based; set-up: dietary status Fasting, dose 650 mg, dosed compound id 2.46814e+06, dosed compound name Acetylsalicylic acid, regimen Single, route oral, sampling time 24 h, study doses 325/650 mg; details: plasma, po, 650 mg
[2] = (§2) Mean AUCinfinity of acetylsalicylic acid concentration after administration of Genuine Bayer Aspirin Tablet at fasting condition in human; type: ADME, organism-based; set-up: time infinity, dietary status Fasting, dose 650 mg, dosed compound id 2.46814e+06, dosed compound name Acetylsalicylic acid, regimen Single, route oral, sampling time 24 h, study doses 325/650 mg; details: plasma, po, 650 mg, read-out: AUCinfinity (converted)
[3] = (§3) Mean terminal elimination half-life of acetylsalicylic acid concentration after administration of Genuine Bayer Aspirin Tablet at fasting condition in human; type: ADME, organism-based; set-up: dietary status Fasting, dose 325 mg, dosed compound id 2.46814e+06, dosed compound name Acetylsalicylic acid, regimen Single, route oral, sampling time 24 h, study doses 325/650 mg; details: plasma, po, 325 mg
[4] = (§4) Mean AUC0-t of acetylsalicylic acid concentration after administration of Genuine Bayer Aspirin Tablet at fasting condition in human; type: ADME, organism-based; set-up: dietary status Fasting, dose 650 mg, dosed compound id 2.46814e+06, dosed compound name Acetylsalicylic acid, regimen Single, route oral, sampling time 24 h, study doses 325/650 mg; details: plasma, po, 650 mg
[5] = as §1; type: ADME, organism-based; set-up: dietary status Fasting, dose 325 mg, dosed compound id 2.46814e+06, dosed compound name Acetylsalicylic acid, regimen Single, route oral, sampling time 24 h, study doses 325/650 mg; details: plasma, po, 325 mg
[6] = (§5) Mean Cmax of acetylsalicylic acid concentration after administration of Genuine Bayer Aspirin Tablet at fasting condition in human; type: ADME, organism-based; set-up: dietary status Fasting, dose 650 mg, dosed compound id 2.46814e+06, dosed compound name Acetylsalicylic acid, regimen Single, route oral, sampling time 24 h, study doses 325/650 mg; details: plasma, po, 650 mg
[7] = as §2; type: ADME, organism-based; set-up: time infinity, dietary status Fasting, dose 325 mg, dosed compound id 2.46814e+06, dosed compound name Acetylsalicylic acid, regimen Single, route oral, sampling time 24 h, study doses 325/650 mg; details: plasma, po, 325 mg, read-out: AUCinfinity (converted)
[8] = (§6) Mean Tlag of acetylsalicylic acid concentration after administration of Genuine Bayer Aspirin Tablet at fasting condition in human; type: ADME, organism-based, Plasma; set-up: dietary status Fasting, dose 650 mg, dosed compound id 2.46814e+06, dosed compound name Acetylsalicylic acid, regimen Single, route oral, sampling time 24 h, study doses 325/650 mg; details: in vivo, po
[9] = as §4; type: ADME, organism-based; set-up: dietary status Fasting, dose 325 mg, dosed compound id 2.46814e+06, dosed compound name Acetylsalicylic acid, regimen Single, route oral, sampling time 24 h, study doses 325/650 mg; details: plasma, po, 325 mg
[10] = as §3; type: ADME, organism-based; set-up: dietary status Fasting, dose 650 mg, dosed compound id 2.46814e+06, dosed compound name Acetylsalicylic acid, regimen Single, route oral, sampling time 24 h, study doses 325/650 mg; details: plasma, po, 650 mg
[11] = as §6; type: ADME, organism-based, Plasma; set-up: dietary status Fasting, dose 325 mg, dosed compound id 2.46814e+06, dosed compound name Acetylsalicylic acid, regimen Single, route oral, sampling time 24 h, study doses 325/650 mg; details: in vivo, po
[12] = as §5; type: ADME, organism-based; set-up: dietary status Fasting, dose 325 mg, dosed compound id 2.46814e+06, dosed compound name Acetylsalicylic acid, regimen Single, route oral, sampling time 24 h, study doses 325/650 mg; details: plasma, po, 325 mg

Tmax [1]: 40 min
AUC(0-inf) [2]: 7280 ng·h/mL
half-life [3]: 31 min
AUC(0-t) [4]: 6880 ng·h/mL
Tmax [5]: 68 min
Cmax [6]: 5100 ng/mL
AUC(0-inf) [7]: 3830 ng·h/mL
Tlag [8]: 1 min
AUC(0-t) [9]: 3520 ng·h/mL
half-life [10]: 55 min
Tlag [11]: 2 min
Cmax [12]: 2590 ng/mL
SMILES: CC(=O)Oc1ccccc1C(=O)O [ASPIRIN]
